We go through 12 compounds from patent US20080161232A1, “C5a Receptor Antagonist” (JERINI AG, priority 2005, published 2008).

Structures are written as SMILES. Starred links: 1 amine or outer side, 2 acyl side, 3 side chain; linkers in the order of their positions; H or OH if unused. Positions of bridges follow the written chain, without caps; N, C: chain ends. Non-standard residues stand in square brackets, D forms with d. Residues, ends and D or L forms follow the SMILES beside them. *: point of attachment. Phe(3,4-F2) = N[C@@H](Cc1ccc(F)c(F)c1)C(=O)O; dβ3hPhg = O=C(C[C@H](N[*:1])c1ccccc1)[*:2]; Phe(3-Cl) = N[C@@H](Cc1cccc(Cl)c1)C(=O)O; Phe(4-F) = N[C@@H](Cc1ccc(F)cc1)C(=O)O; Bta = N[C@@H](Cc1csc2ccccc12)C(=O)O; Hyp = O=C(O)[C@@H]1C[C@@H](O)CN1; d(hLeu) = CC(C)CC[C@@H](N)C(=O)O; Cha = N[C@@H](CC1CCCCC1)C(=O)O; Cit = NC(=O)NCCC[C@H](N)C(=O)O; dCha = N[C@H](CC1CCCCC1)C(=O)O; NHPhenethyl = c1ccc(CCN*)cc1; X14 = NC(=O)N(Cc1ccccc1)N*; Nle = CCCC[C@H](N)C(=O)O; Orn = NCCC[C@H](N)C(=O)O; Aze = O=C(O)[C@@H]1CCN1

One experiment concerns the target T1, human C5aR(CD88) (Homo sapiens, UniProt P21730).
T1 construct: expressed in transfected cells; host or cells: rat basophilic leukemia cells (RBL)
T1 sequence (P21730 1-350): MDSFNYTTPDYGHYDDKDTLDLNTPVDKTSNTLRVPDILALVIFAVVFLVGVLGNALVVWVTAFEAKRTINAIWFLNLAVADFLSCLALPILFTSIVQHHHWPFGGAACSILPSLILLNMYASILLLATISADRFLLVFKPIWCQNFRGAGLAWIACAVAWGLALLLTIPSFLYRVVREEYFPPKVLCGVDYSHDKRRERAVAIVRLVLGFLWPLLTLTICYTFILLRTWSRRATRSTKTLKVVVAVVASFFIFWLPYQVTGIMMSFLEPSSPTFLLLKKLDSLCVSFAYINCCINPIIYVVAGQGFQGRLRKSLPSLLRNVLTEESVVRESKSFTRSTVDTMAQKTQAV
Nature of the experiment: Determination of the IC50 value in an enzyme release assay (functional assay, antagonistic activity). It counts as cell-based. The following applies: activity (group).
The compound `CO[C@@H]1C[C@H]2C(=O)N[C@H](CCC(C)C)C(=O)N[C@@H](Cc3ccc(F)cc3)C(=O)N[C@@H](Cc3ccccc3)C(=O)NCCC[C@H](NC(=O)[C@@H](N)Cc3ccccc3)C(=O)N2C1` [Compound 355, H-Phe-[Orn-Hym-hle-Pff-Phe]] (H-F[Orn][Hyp](Me)[d(hLeu)][Phe(4-F)]F; lactam 2-C) gave an IC50 of 50 to 200 nM.

Staying with this experiment, now noted: activity (group), antagonistic activity; IC50 group in enzyme release assay, RBL cells expressing human C5aR(CD88).
The compound `CC(=O)N[C@@H](Cc1ccccc1)C(=O)N[C@@H](CCCN)C(=O)N1CCC[C@H]1C(=O)N[C@@H](CC1CCCCC1)C(=O)N[C@@H](Cc1csc2ccccc12)C(=O)NN(Cc1ccccc1)C(N)=O` [Compound 257, Ac-Phe-Orn-Pro-Cha-Bta-NH-NBn-CO—NH2] (Ac-F[Orn]P[Cha][Bta]-X14) showed an IC50 of 50 to 200 nM.

The same experiment, now with this note: antagonistic activity; IC50 group in enzyme release assay, RBL cells expressing human C5aR(CD88); read-out: activity (group).
On to `CCCC[C@@H]1NC(=O)[C@H](Cc2c[nH]c3ccccc23)NC(=O)[C@@H](CCC(C)C)NC(=O)[C@@H]2C[C@@H](O)CN2C(=O)[C@@H](NC(=O)C[C@H](N)c2ccccc2)CCCNC1=O` [Compound 344, H-Eby-[Orn-Hyp-hle-Trp-Nle]] (dβ3hPhg-[Orn][Hyp][d(hLeu)]W[Nle]; lactam 1-C), for which the IC50 fell in the range of 50 to 200 nM.
Still for that read-out and setting: the result for `CCCC[C@@H]1NC(=O)[C@H](Cc2c[nH]c3ccccc23)NC(=O)[C@@H](CCC(C)C)NC(=O)[C@H](CO)NC(=O)[C@@H](NC(=O)[C@@H](N)Cc2ccccc2)CCCNC1=O` [Compound 390, H-Phe-[Orn-Ser-hle-Trp-Nle]] (H-F[Orn]S[d(hLeu)]W[Nle]; lactam 2-C) reads 20 to 50 nM; that for `CC(=O)N[C@@H](Cc1ccccc1)C(=O)N[C@@H](CCCN)C(=O)N[C@@H](CO)C(=O)N[C@H](CC1CCCCC1)C(=O)N[C@@H](Cc1c[nH]c2ccccc12)C(=O)N[C@@H](Cc1ccccc1)C(N)=O` [Compound 108, Ac-Phe-Orn-Ser-cha-Trp-Phe-NH2] (Ac-F[Orn]S[dCha]WF-NH2), 20 to 50 nM.
Same read-out and setting: the result for `CC(=O)N[C@@H](Cc1ccccc1)C(=O)N[C@@H](CCCNC(=N)N)C(=O)N1CCC[C@H]1C(=O)N[C@H](CC1CCCCC1)C(=O)N[C@@H](Cc1c[nH]c2ccccc12)C(=O)N[C@@H](Cc1ccccc1)C(N)=O` [Compound 104, Ac-Phe-Arg-Pro-cha-Trp-Phe-NH2] (Ac-FRP[dCha]WF-NH2) reads 50 to 200 nM; that for `CC(=O)N[C@@H](Cc1ccccc1)C(=O)N[C@@H](CCCN)C(=O)N1CCC[C@H]1C(=O)N[C@H](CCC(C)C)C(=O)N[C@@H](Cc1ccc(F)c(F)c1)C(=O)N[C@@H](Cc1ccccc1)C(N)=O` [Compound 283, Ac-Phe-Orn-Pro-hle-Dff-Phe-NH2] (Ac-F[Orn]P[d(hLeu)][Phe(3,4-F2)]F-NH2), 50 to 200 nM.
`CC(=O)N[C@@H](Cc1ccc(F)cc1)C(=O)N[C@@H](CCCN)C(=O)N1CCC[C@H]1C(=O)N[C@H](CCC(C)C)C(=O)N[C@@H](Cc1cccc(Cl)c1)C(=O)N[C@@H](Cc1ccc(F)cc1)C(N)=O` [Compound 171, Ac-Pff-Orn-Pro-hle-Mcf-Pff-NH2] (Ac-[Phe(4-F)][Orn]P[d(hLeu)][Phe(3-Cl)][Phe(4-F)]-NH2): the IC50 is 50 to 200 nM.
For the compound `CC(=O)N[C@@H](Cc1ccccc1)C(=O)N[C@@H](CCCN)C(=O)N1CC[C@H]1C(=O)N[C@H](CC1CCCCC1)C(=O)N[C@@H](Cc1cccc(Cl)c1)C(=O)N[C@@H](Cc1ccccc1)C(N)=O` [Compound 100, Ac-Phe-Orn-Aze-cha-Mcf-Phe-NH2] (Ac-F[Orn][Aze][dCha][Phe(3-Cl)]F-NH2), the IC50 is 50 to 200 nM.
Same read-out and setting: as for `N[C@@H](Cc1ccccc1)C(=O)N[C@H]1CCCNC(=O)[C@H](Cc2ccccc2)NC(=O)[C@H](Cc2c[nH]c3ccccc23)NC(=O)[C@@H](CC2CCCCC2)NC(=O)[C@H](CO)NC1=O` [Compound 383, H-Phe-[Orn-Ser-cha-Trp-Phe]] (H-F[Orn]S[dCha]WF; lactam 2-C), the figure is 20 to 50 nM.
Still for that read-out and setting: as for `CC(=O)N[C@@H](Cc1ccccc1)C(=O)N[C@@H](CCCN)C(=O)N1CC[C@H]1C(=O)N[C@H](CC1CCCCC1)C(=O)N[C@@H](Cc1csc2ccccc12)C(=O)NCCc1ccccc1` [Compound 73, Ac-Phe-Orn-Aze-cha-Bta-NH—CH2—CH2-Ph] (Ac-F[Orn][Aze][dCha][Bta]-NHPhenethyl), the figure is 200 to 2000 nM.
For `CC(C)CC[C@@H](NC(=O)[C@@H]1CCCN1C(=O)[C@H](CCCNC(N)=O)NC(=O)[C@@H](N)Cc1ccccc1)C(=O)N[C@@H](Cc1csc2ccccc12)C(=O)N[C@@H](Cc1ccccc1)C(N)=O` [Compound 391, H-Phe-Cit-Pro-hle-Bta-Phe-NH2] (H-F[Cit]P[d(hLeu)][Bta]F-NH2), the IC50 was 50 to 200 nM.
